Read-outs that look alike come from different tables or passages of the source. Peptide text beside a SMILES is read from it. * marks the point of attachment. Cbz = O=C(OCc1ccccc1)*
Key:
GST-14-3-3η = biological target: T1, GST-14-3-3η (Homo sapiens, UniProt Q04917); experiment: Fluorescent polarization, GST14-3-3η titrated to FAM-pCIP2A peptide; type: binding, Hs; conditions: FP, GST14-3-3η titrated to 100 nM FAM peptide, PBS pH 7.5, RT, 30 min
T1 construct: made in house; host or cells: Rosetta 2 (DE3)pLysS E. coli
T1 sequence (Q04917 1-246): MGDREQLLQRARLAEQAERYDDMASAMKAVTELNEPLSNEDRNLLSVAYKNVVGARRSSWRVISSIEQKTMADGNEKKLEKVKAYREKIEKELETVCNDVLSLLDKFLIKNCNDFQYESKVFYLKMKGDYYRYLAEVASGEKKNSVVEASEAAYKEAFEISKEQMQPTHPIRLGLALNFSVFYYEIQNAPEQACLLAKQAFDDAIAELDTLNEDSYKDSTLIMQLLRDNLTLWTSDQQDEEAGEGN
Protocol: Data is shown as mean ± SEM of three independent experiments. (E) Fluorescent polarization GST14-3-3η concentration–response curves generated in the presence of 10 μM FC-A or buffer using 100 nM of peptide 3. (F) Fluorescent polarization concentration–response curve of FC-A stabilizing the interaction between 1.5 μM GST14-3-3η and 100 nM peptide 3. Data is presented as the mean ± SEM of three independent experiments.
First, concentration–response curves were made using peptide 3, which was N-terminally labeled with fluorescein and in which Ser904 is phosphorylated by titrating to N-terminally GST-tagged 14-3-3η (GST-14-3-3η) at a fixed concentration of FC-A (10 μM) or a buffer control.
peptide was dissolved in phosphate saline buffer (PBS) with a pH of 7.5. Concentration curves of recombinant GST-14-3-3η were produced by mixing various concentrations of the protein diluted in assay buffer (PBS, pH=7.5) with a fixed 100 nM of the FAM labelled peptide and either a DMSO vehicle control or a fixed 10 μM Fusicoccin – A (FC-A). FC-A concentration curves were generated by mixing various concentrations of FC-A diluted in PBS with a fixed 100 nM of FAM - CIP2A and a fixed 4.7 μM of GST-14-3-3η. […]

[1] = biological target: T2, 14-3-3η (N-terminally GST tagged) (Homo sapiens, UniProt Q04917); experiment: HTRF assay of CIP2A C-terminal peptides with GST14-3-3η; type: binding, Hs; conditions: HTRF concentration–response, nonphosphorylated peptide; 10 nM GST14-3-3η; presence or absence of 10 μM FC-A
T2 construct: made in house; host or cells: Rosetta 2 (DE3)pLysS E. coli
T2 sequence (Q04917 1-246): T1 sequence (Q04917 1-246)
Text: Therefore, using (non)phosphorylated C-terminal CIP2A peptides, we investigated whether 14-3-3 could directly interact with CIP2A (Figure 1C). First, we developed a homogeneous time-resolved FRET (HTRF) assay for this putative interaction and its phosphorylation dependence (Figure 1D). […] Europium is excited at a wavelength of 337 nm resulting in emission at a wavelength of 620 nm. If 14-3-3 interacts with the CIP2A peptide, resonance energy transfer can occur resulting in excitation and emission of XL665 at a wavelength of 665 nm.
Data is shown as mean ± SEM of three independent experiments. […] Data is presented as the mean ± SEM of three independent experiments.

CIP2A / 14-3-3 = experiment: GST14-3-3η pulldown of CIP2A from FC-A treated MDA-MB-468 cells; type: cell-based; conditions: cells treated with 30 μM FC-A 24 h vs control; two independent experiments
Protocol: (§1) (A) Cartoon showing FC-A coupled to magnetic hydrazide beads. (B) Western blot showing the results of an FC-beads pulldown experiment in MDA-MB-468 cell lysates. (C) Western blot of the GST14-3-3η pulldown of CIP2A in MDA-MB-468 cell lysates. […] (D) Western blot of MDA-MB-468 cell lysates after treatment of cells with 30 μM FC-A or a vehicle control for 24 h before harvest. Quantification was performed after normalization to an actin loading control. […] Membrane was probed with our custom CIP2A pS904, C-terminal CIP2A, and actin antibodies. (E) Western blot of GST14-3-3η pulldown of CIP2A in MDA-MB-468 cell lysates from cells either treated with 30 μM FC-A or a vehicle control for 24 h before harvest. Representative Western blots are shown of three (B–D) or two (E) independent experiments. […]

H^+-ATPase = conditions: 14-3-3/FC-A; cited from earlier work
14-3-3η/pCIP2A complex = experiment: Fluorescent polarization, FC-A stabilization of 14-3-3η/pCIP2A; set-up: species or system Hs; conditions: FP, FC-A titrated to 100 nM peptide 3 and 1.5 μM GST14-3-3η (legend; SI: 4.7 μM); PBS, RT, 30 min; mean of three independent experiments; read-out: EC50 (FC-A enhancing binding of 14-3-3η to pCIP2A)
Text: Figure 1 The C-terminus of CIP2A contains a mode-III 14-3-3 binding motif. (A) CIP2A’s C-terminus overlaid with 14-3-3 mode-III binding motif. The putative phosphosite is highlighted red with an alignment of the C-terminal amino acid sequence of CIP2A from different species shown below. (B) Chemical structure of Fusicoccin-A. (C) Overview of N-terminally biotinylated or fluorescein labeled CIP2A peptides either non- or phosphorylated on Ser904. (D) Homogeneous time-resolved FRET (HTRF) assay in which an N-terminally GST tagged 14-3-3η is targeted with an anti-GST europium (Eu) cryptate labeled monoclonal antibody and CIP2A peptides 1 and 2 used are N-terminally biotinylated and labeled with streptavidin conjugated to XL665. Concentration–response curves are shown for peptide 1 (Ser904) and peptide 2 (pSer904) in the presence or absence of a fixed 10 μM FC-A and 10 nM GST14-3-3η. Data is shown as mean ± SEM of three independent experiments. […]
FC-A beads were produced in a two-step reaction as previously described by Feyerabend and Weiler, 1987 by first generating FC-aldehyde (FC-Ald) which, was subsequently coupled to magnetic hydrazide beads (Chemicell, Cat#1404). […] Before coupling to magnetic hydrazide beads reaction efficiency was determined by HPLC analysis. […]

CIP2A = type: cell-based
Protocol: as §1

CIP2A Ser904 = type: cell-based
Protocol: as §1

[2] = test system: cancer cells, including breast cancer; conditions: FC-A and its derivatives; cited from earlier work
Text: It has been shown that polo-like kinase 1 (PLK1) can bind to the C-terminal tip of CIP2A and phosphorylate its penultimate residue Ser904.[11] We hypothesized that phosphorylation of Ser904 could create a C-terminal binding site for the regulatory proteins 14-3-3, which act as molecular scaffolds in the cell through regulation of protein–protein interactions (PPIs) in key cellular processes. A unique feature of a subset of C-terminal 14-3-3 interactions is that they can be targeted by the diterpene glucoside Fusicoccin-A (FC-A) for PPI stabilization.[12],[13] In several studies, FC-A and its d ...

ERα = conditions: cited from earlier work
GST-14-3-3η / CIP2A = experiment: GST-14-3-3η pulldown of CIP2A, MDA-MB-468 cell lysates; type: binding; conditions: lysate preincubated with 200 μM ATP, 10 mM MgCl2, 1 hour 37 °C
Protocol: (A) Cartoon showing FC-A coupled to magnetic hydrazide beads. (B) Western blot showing the results of an FC-beads pulldown experiment in MDA-MB-468 cell lysates. (C) Western blot of the GST14-3-3η pulldown of CIP2A in MDA-MB-468 cell lysates. […] (D) Western blot of MDA-MB-468 cell lysates after treatment of cells with 30 μM FC-A or a vehicle control for 24 h before harvest. Quantification was performed after normalization to an actin loading control. […] Membrane was probed with our custom CIP2A pS904, C-terminal CIP2A, and actin antibodies. (E) Western blot of GST14-3-3η pulldown of CIP2A in MDA-MB-468 cell lysates from cells either treated with 30 μM FC-A or a vehicle control for 24 h before harvest. Representative Western blots are shown of three (B–D) or two (E) independent experiments.

In the case of `CC[C@H](C)[C@H](NC(=O)[C@H](COP(=O)(O)O)NC(=O)[C@H](CC(C)C)NC(=O)[C@H](CC(N)=O)NC(=O)[C@@H](NC(=O)[C@@H](NC(=O)[C@H](CCC(=O)O)NC(=O)[C@@H]1CCCN1C(=O)[C@H](CC(N)=O)NC(=O)[C@@H](NC(=O)c1ccc2c(c1)C(=O)OC21c2ccc(O)cc2Oc2cc(O)ccc21)[C@@H](C)CC)[C@@H](C)O)C(C)C)C(=O)O` [FAM-pCIP2A peptide], the EC50 (GST-14-3-3η; buffer / DMSO control, read-out: EC50) is reported as 118 µM and the EC50 (GST-14-3-3η; fixed 10 μM FC-A, read-out: EC50 (shift in presence of FC-A)) is reported as 2.76 µM.

In the case of “Bio-LSSGGKINPETVNL-S^904-I-COOH [peptide 1, N-terminally biotinylated nonphosphorylated C-terminal CIP2A peptide]”, the “interaction with 14-3-3” value [1] is reported as “does not interact with 14-3-3”.

For `C=CC(C)(C)OC[C@H]1O[C@H](O[C@@H]2C3=C([C@H](C)COC(C)=O)C[C@H](O)[C@]3(C)/C=C3/[C@@H](COC)CC[C@H]3[C@@H](C)[C@H]2O)[C@H](O)[C@@H](OC(C)=O)[C@@H]1O` [FC-A, Fusicoccin-A], the “CIP2A in GST-14-3-3η pulldown” value (CIP2A / 14-3-3) is given as “more CIP2A could be detected in these samples compared to control cell lysates”, the “protection of penultimate C-terminal phosphorylation site” value (H^+-ATPase) is given as “shields the penultimate C-terminal phosphorylation site from phosphatases” and the EC50 (14-3-3η/pCIP2A complex) is given as 11.8 µM. For the same compound, the “Fold Change (Norm. to CTL): CIP2A Tot.” value (CIP2A) was 0.79, the “effect on total CIP2A in presence of cycloheximide” value (CIP2A; 30 μM FC-A with 100 µg/mL cycloheximide, 24 h, MDA-MB-468, three independent experiments) was “no changes in total CIP2A over a 24 h period” and the “effect on total CIP2A” value (CIP2A; FC-A 24 h, MDA-MB-468) was “did not affect total CIP2A”. The “Fold Change (Norm. to CTL): CIP2A pS904” value (CIP2A Ser904) was 2.55, the “effect on Ser904 phosphorylation levels” value (CIP2A Ser904; FC-A 24 h, MDA-MB-468) was “Ser904 phosphorylation levels were enhanced” and the antiproliferative effects [2] was “antiproliferative effects in cancer cells, including breast cancer”. For the same compound, the “effect on detection of C-terminal phosphorylation of ERα” value (ERα; MCF-7 cells treated with FC-A) was “necessary to detect C-terminal phosphorylation of the ERα”.

For `CC(C)C[C@@H](C=O)NC(=O)[C@H](CC(C)C)NC(=O)[C@H](CC(C)C)NC(=O)OCc1ccccc1` [MG132] (Cbz-Leu-Leu-Leu-aldehyde), the “effect on phosphorylation of ERα C-terminal tip” value (ERα; proteasome inhibitor MG132, in addition to FC-A) is given as “additional requirement for phosphorylation of the C-terminal tip”.

With `Nc1ncnc2c1ncn2[C@@H]1O[C@H](COP(=O)(O)OP(=O)(O)OP(=O)(O)O)[C@@H](O)[C@H]1O` [ATP] the “effect on CIP2A pulldown by GST-14-3-3η” value (GST-14-3-3η / CIP2A) was “more CIP2A was identified in pulldown samples”.

— paper PMC9679992, “Fusicoccin-A Targets Cancerous Inhibitor of Protein Phosphatase 2A by Stabilizing a C-Terminal Interaction with 14-3-3” (ACS Chemical Biology, 2022)
